Results from patent publication US20180243274A1, “ANTIBACTERIAL COMPOSITIONS” (WOCKHARDT LIMITED, priority 2013, published 2018).

Tests used:
[1] = test system: clinical isolate of E. coli M50 producing CMY 6, DHA—1/2 beta-lactamase enzymes; experiment: Time kill study against clinical isolate E. coli M50; assay type: cell-based; details: for effect on bacterial counts when used alone: throughout the duration of the study
Procedure: (§1) The synergistic killing effect of the combinations according to invention was studied by performing time kill studies. In a typical time kill study, the freshly grown cultures were diluted to the required cell density (initial starting inoculum) in Cation adjusted Muller Hinton broth medium (BD, USA). The antibacterial agents (either alone or in combination) at the required concentrations were added into the culture-containing medium. The samples were incubated under shaking condition (120 rpm) at 37° C. Enumeration of viable bacterial count was done every 2 hour by diluting in normal saline and plating on to the Tryptic Soya Agar plates (BD, USA). The plates were incubated for 24 hours to arrive at the viable bacterial count. The results are expressed in terms of Log 10 CFU per ml. In general, the decrease of 1 Log 10 CFU/ml corresponds to 90% killing of bacteria. Similarly, 2 Log 10 CFU/ml reductions indicates to 99% killing of bacteria and 3 Log 10 CFU/ml reductions is equal to 99.9% killing of bacteria.
The results on antibacterial activity of the antibacterial agent selected from cefixime, cefpodoxime, ceftibuten or cefuroxime alone and in combination with a compound of Formula (I) against E. coli M50 are given in Table 2. E. coli M50 produces resistant CMY 6, DHA-½ beta-lactamase enzymes.

[2] = test system: E. coli NCTC 13353 producing CTX-M15 and OXA 1 beta-lactamase enzymes; experiment: Time kill study against E. coli NCTC 13353; assay type: cell-based; details: for effect on bacterial counts when used alone: throughout the duration of the study
Procedure: as §1
E. coli NCTC 13353 produces resistant CTX-M15 and OXA 1 beta-lactamase enzymes.

Row | SMILES | Bacterial count (Log10 CFU/ml) 0 hour ([1]; agent alone 4 mcg/ml) [Log10 CFU/ml] | Bacterial count (Log10 CFU/ml) 2 hours ([1]; agent alone 4 mcg/ml) [Log10 CFU/ml] | Bacterial count (Log10 CFU/ml) 4 hours ([1]; agent alone 4 mcg/ml) [Log10 CFU/ml] | Bacterial count (Log10 CFU/ml) 6 hours ([1]; agent alone 4 mcg/ml) [Log10 CFU/ml] | Bacterial count (Log10 CFU/ml) 8 hours ([1]; agent alone 4 mcg/ml) [Log10 CFU/ml] | Bacterial count (Log10 CFU/ml) 0 hours ([2]; agent alone 1 mcg/ml) [Log10 CFU/ml] | Bacterial count (Log10 CFU/ml) 2 hours ([2]; agent alone 1 mcg/ml) [Log10 CFU/ml] | Bacterial count (Log10 CFU/ml) 4 hours ([2]; agent alone 1 mcg/ml) [Log10 CFU/ml] | Bacterial count (Log10 CFU/ml) 6 hours ([2]; agent alone 1 mcg/ml) [Log10 CFU/ml] | Bacterial count (Log10 CFU/ml) 24 hours ([2]; agent alone 1 mcg/ml) [Log10 CFU/ml] | effect on bacterial counts when used alone [1] | effect on bacterial counts when used alone [2] | other results
1 | C=CC1=C(C(=O)O)N2C(=O)[C@@H](NC(=O)/C(=N\OCC(=O)O)c3csc(N)n3)[C@H]2SC1 [Cefixime, cefixime] | 7.77 | 8.84 | 9.20 | 8.90 | 9.30 | 7.23 | 8.65 | 8.90 | 8.84 | 9.06 |  |  | 
2 | COCC1=C(C(=O)O)N2C(=O)[C@@H](NC(=O)/C(=N\OC)c3csc(N)n3)[C@H]2SC1 [Cefpodoxime, cefpodoxime] | 7.77 | 8.60 | 9.04 | 9.16 | 9.19 | 7.23 | 8.17 | 8.74 | 8.90 | 9.06 |  |  | 
3 | Nc1nc(/C(=C/CC(=O)O)C(=O)N[C@@H]2C(=O)N3C(C(=O)O)=CCS[C@H]23)cs1 [Ceftibuten, ceftibuten] | 7.77 | 8.48 | 8.70 | 9.08 | 9.20 | 7.23 | 8.10 | 8.7 | 9.04 | 9.51 | did not reduce the bacterial counts | did not reduce the bacterial counts | 
4 | CO/N=C(\C(=O)N[C@@H]1C(=O)N2C(C(=O)O)=C(COC(N)=O)CS[C@H]12)c1ccco1 [Cefuroxime, cefuroxime] | 7.77 | 8.58 | 9.02 | 9.2 | 9.50 | 7.23 | 8.25 | 8.80 | 9.38 | 9.48 | did not reduce the bacterial counts | did not reduce the bacterial counts | 
5 | O=C(NOC[C@@H]1CCCN1)[C@@H]1CC[C@@H]2CN1C(=O)N2OS(=O)(=O)O [Compound of Formula (I), (2S, 5R)-7-oxo-N-[(2S)-pyrrolidin-2-ylmethoxy]-6-(sulfooxy)-1,6-diazabicyclo[3.2.1]octane-2-carboxamide] | 7.77 | 8.02 | 8.09 | 8.07 | 8.08 |  |  |  |  |  | did not reduce the bacterial counts | did not reduce the bacterial counts | Bacterial count (Log10 CFU/ml) 0 hours ([2]; alone 4 mcg/ml): 7.23 Log10 CFU/ml; Bacterial count (Log10 CFU/ml) 2 hours ([2]; alone 4 mcg/ml): 7.17 Log10 CFU/ml; Bacterial count (Log10 CFU/ml) 4 hours ([2]; alone 4 mcg/ml): 7.14 Log10 CFU/ml; Bacterial count (Log10 CFU/ml) 6 hours ([2]; alone 4 mcg/ml): 7.11 Log10 CFU/ml; Bacterial count (Log10 CFU/ml) 24 hours ([2]; alone 4 mcg/ml): 7.87 Log10 CFU/ml
6 | C[C@@H](O)[C@H]1C(=O)N2C(C(=O)O)=C(SCCN=CN)C[C@H]12 [Imipenem] |  |  |  |  |  | 7.23 | 4.95 | 4.47 | 4.39 | 7.34 |  |  | Bacterial count (Log10 CFU/ml) 0 hour ([1]; alone 1 mcg/ml): 7.77 Log10 CFU/ml; Bacterial count (Log10 CFU/ml) 2 hours ([1]; alone 1 mcg/ml): 5.60 Log10 CFU/ml; Bacterial count (Log10 CFU/ml) 4 hours ([1]; alone 1 mcg/ml): 7.47 Log10 CFU/ml; Bacterial count (Log10 CFU/ml) 6 hours ([1]; alone 1 mcg/ml): 8.07 Log10 CFU/ml; Bacterial count (Log10 CFU/ml) 8 hours ([1]; alone 1 mcg/ml): 8.47 Log10 CFU/ml
